Measurements taken from patent US8414938B2, “Schisandrae fructus extracts for inhibition or prevention of H1N1 influenza virus infection and its application thereof” (National Defense Medical Center, priority 2011, dated 2013).
≈ marks a conversion by molar mass, not a printed value.

Each compound was assayed on H1N1-TR (Tamiflu resistant virus strain) (assay: microbe, parasite or virus in culture). Details: unidentified influenza virus, H1N1, read-out: MIC, H1N1-TR.
Format: cell-based

SMILES	MIC [µg/mL]
C/C=C(\C)C(=O)O[C@H]1c2cc(OC)c(OC)c(OC)c2-c2c(cc3c(c2OC)OCO3)C[C@H](C)[C@@]1(C)O (atropisomer, axis not shown) [Tigloylgomisin P]	75 (≈ 146 µM)
COc1cc([C@@H]2c3cc(OC)c(O)cc3C(=O)[C@@H](C)[C@H]2C)ccc1O [Wulignan A1]	12.5 (≈ 36.5 µM)
COc1cc2c(c(OC)c1OC)-c1c(cc3c(c1OC)OCO3)C[C@H](C)[C@@](C)(O)[C@H]2OC(=O)c1ccccc1 (atropisomer, axis not shown) [Benzoylgomisin P]	12.5 (≈ 23.3 µM)
COc1cc2c(cc1O)C(=O)[C@@H](C)[C@@H](C)[C@@H]2c1ccc(OC)c(OC)c1 [Schisandrone]	6.25 (≈ 17.5 µM)
NC(=O)c1ncn([C@@H]2O[C@H](CO)[C@@H](O)[C@H]2O)n1 [Ribavirin, ribavirin, reference compound]	3.12 (≈ 12.8 µM)
COc1cc([C@@H]2c3cc(OC)c(O)cc3C(=O)[C@H](C)[C@H]2C)ccc1O [Epiwulignan A1]	12.5 (≈ 36.5 µM)
